The assay is described as follows: Multicenter, double-blind, randomized, placebo-controlled clinical study in subjects with frequent heartburn. In kind it is in vivo, human. The protocol: A multicenter, double-blind, randomized, parallel group, placebo-controlled clinical study is carried out to investigate the safety and efficacy of lansoprazole, 15 mg (or alternatively 30 mg) once daily, in preventing frequent heartburn.
The trial population consists of subjects (male or female, at least 18 years old) with frequent heartburn, i.e. heartburn occurring a minimum of 2 or more days a week over the past month, that was untreated. A total of 576 subjects with frequent heartburn (288 per group) is randomized in order to yield 546 subjects.
The study population is divided equally between a treatment group receiving lansoprazole capsules, 15 mg (or alternatively, 30 mg) and a control group receiving placebo capsules. All statistical tests used to compare the two treatment groups are two-sided, with probability of Type I error=0.05.
Lansoprazole 15 mg (or alternatively, 30 mg) capsules or placebo are taken once daily for 14 days during the double blind treatment period.
Most measures of efficacy are derived from data recorded in the subject's IVRS diary after a daily self-assessment. Subjects are given instructions to complete the IVRS diary in the morning for the previous 24-hour period on a daily basis for all phases of the study. The diary is designed to collect information on the occurrence of daytime and nighttime heartburn episodes, maximum heartburn severity, and rescue medication consumption for the previous 24 hours. In addition, the date and time of study medication consumption are recorded.
To classify heartburn severity, subjects are instructed to use the most intense episode of the 24-hour period according to the following Intensity Scale Definitions (Table 6):
Therefore, the primary evaluation is the period between the first dose (Day 1) through the end of the double blind treatment period, i.e. Days 1-14 for 24-hour days. “No heartburn over 24 hours” on each of Days 1-14 is defined as the combined experience of daytime and nighttime heartburn. […]
This variable is analyzed as the percentage of nighttimes with the outcome of no nighttime heartburn. […]

Where [1] appears, read: 14-day course of therapy, randomized treatment group.

On to `Cc1c(OCC(F)(F)F)ccnc1C[S+]([O-])c1nc2ccccc2[nH]1` (stereo not drawn) [Lansoprazole], for which the “efficacy in the relief of frequent heartburn compared to placebo” value (15 mg once daily, 14 days) is “superior in efficacy to placebo”. Moreover, under setting [1], the “proportion of 24-hour days substantially free of heartburn compared to placebo” value is given as “statistically significant increase” and the “proportion of nighttimes substantially free of heartburn compared to placebo” value is given as “statistically significant increase”.

The values above are taken from patent US20100120867A1, “METHOD OF TREATMENT” (Novartis AG, priority 2007, published 2010).
